In ChEMBL document CHEMBL4420076, “Amylin and calcitonin receptor agonist” (2017):
Numbered stars: 1 amine (or outer) side, 2 acyl side, 3 side chain; on linkers, the order of the positions; unused ones are H or OH. Peptide text beside a SMILES is read from it. * marks the point of attachment. C20 diacid = O=C(O)CCCCCCCCCCCCCCCCCCC(=O)*; C18 diacid = O=C(O)CCCCCCCCCCCCCCCCC(=O)*; C16 diacid = O=C(O)CCCCCCCCCCCCCCC(=O)*; γGlu = O=C(O)[C@H](CCC(=O)[*:2])N[*:1]

How the values were obtained:
[1] = molecular target: T1, Calcitonin receptor (Homo sapiens, UniProt P30988); assay: Agonist activity at human calcitonin receptor expressed in BHK570 cells assessed as increase in intracellular cAMP concentration incubated for 3 hrs in absence of albumin by CRE luciferase reporter gene assay; format: functional, cell-based
T1 sequence (P30988 whole entry): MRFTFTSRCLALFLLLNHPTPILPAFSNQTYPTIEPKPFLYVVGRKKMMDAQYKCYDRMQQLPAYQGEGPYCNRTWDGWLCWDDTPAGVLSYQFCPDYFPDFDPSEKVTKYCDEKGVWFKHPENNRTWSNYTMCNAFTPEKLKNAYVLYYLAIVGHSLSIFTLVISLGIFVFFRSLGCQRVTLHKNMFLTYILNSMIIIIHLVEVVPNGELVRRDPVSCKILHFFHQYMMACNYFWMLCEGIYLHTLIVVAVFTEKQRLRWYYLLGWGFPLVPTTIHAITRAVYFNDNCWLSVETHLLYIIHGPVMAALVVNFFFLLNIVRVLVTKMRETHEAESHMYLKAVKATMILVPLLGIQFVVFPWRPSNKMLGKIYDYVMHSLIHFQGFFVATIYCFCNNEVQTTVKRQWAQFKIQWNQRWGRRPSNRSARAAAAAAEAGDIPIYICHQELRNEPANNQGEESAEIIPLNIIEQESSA

[2] = molecular target: T2, Amylin receptor AMY3; CALCR/RAMP3 (Rattus norvegicus, UniProt P32214+Q9JJ73); assay: Displacement of [125I]-labeled rat amylin from rat amylin receptor expressed in BHK tkts13 cell membranes co-expressing RAMP3 incubated for 120 mins by scintillation proximity assay
T2 sequence (P32214 whole entry): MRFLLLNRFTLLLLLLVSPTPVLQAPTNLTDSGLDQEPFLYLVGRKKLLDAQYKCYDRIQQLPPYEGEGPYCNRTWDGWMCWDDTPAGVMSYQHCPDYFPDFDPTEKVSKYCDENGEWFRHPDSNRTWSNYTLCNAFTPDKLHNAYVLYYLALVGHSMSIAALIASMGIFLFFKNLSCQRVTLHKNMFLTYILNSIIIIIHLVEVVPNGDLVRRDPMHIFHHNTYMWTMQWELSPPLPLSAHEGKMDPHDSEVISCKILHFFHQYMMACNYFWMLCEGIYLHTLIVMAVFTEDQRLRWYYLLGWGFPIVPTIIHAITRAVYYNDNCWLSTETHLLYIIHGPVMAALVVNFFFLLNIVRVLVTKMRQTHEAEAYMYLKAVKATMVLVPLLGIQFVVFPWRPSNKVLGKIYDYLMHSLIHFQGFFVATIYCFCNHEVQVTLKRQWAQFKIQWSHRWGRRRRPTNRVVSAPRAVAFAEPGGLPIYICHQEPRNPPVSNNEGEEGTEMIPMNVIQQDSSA
T2 sequence (Q9JJ73 whole entry): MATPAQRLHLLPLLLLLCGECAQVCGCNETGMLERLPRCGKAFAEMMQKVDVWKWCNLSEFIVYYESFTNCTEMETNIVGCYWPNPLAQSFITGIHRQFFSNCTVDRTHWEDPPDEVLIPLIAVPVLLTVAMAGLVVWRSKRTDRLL

[3] = molecular target: T3, Amylin receptor AMY3; CALCR/RAMP3 (Homo sapiens, UniProt O60896+P30988); assay: Displacement of [125I]-labeled rat amylin from human amylin receptor expressed in BHK570 cell membranes co-expressing RAMP3 incubated for 120 mins by scintillation proximity assay
T3 sequence (P30988 whole entry): T1 sequence (P30988 whole entry)
T3 sequence (O60896 whole entry): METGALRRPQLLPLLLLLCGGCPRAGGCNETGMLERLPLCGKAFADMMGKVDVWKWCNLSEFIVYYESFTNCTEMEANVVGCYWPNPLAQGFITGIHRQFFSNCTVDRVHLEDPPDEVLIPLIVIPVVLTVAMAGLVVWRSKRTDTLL

[4] = Solubility in 100 mM bistrispropane buffer at pH 6.5 incubated for 18 hrs by UPLC analysis; format: physicochemical
[5] = Solubility in 100 mM glycylglycine buffer at pH 3.0 incubated for 18 hrs by UPLC analysis; format: physicochemical
[6] = Solubility in 100 mM bistrispropane buffer at pH 6.0 incubated for 18 hrs by UPLC analysis; format: physicochemical
[7] = Solubility in 100 mM bistrispropane buffer at pH 7.0 incubated for 18 hrs by UPLC analysis; format: physicochemical
[8] = Stability in pH 7.5 buffer assessed as lag time for fibril formation at 1 uM by Thioflavin T based fluorescence assay; format: physicochemical; conditions: pH 7.5, 1 µM
[9] = molecular target: T3, Amylin receptor AMY3; CALCR/RAMP3; assay: Agonist activity at human amylin receptor expressed in BHK570 cells co-expressing RAMP3 assessed as increase in intracellular cAMP concentration incubated for 3 hrs in absence of albumin by CRE luciferase reporter gene assay; format: functional, cell-based
[10] = Solubility in 100 mM glycylglycine buffer at pH 5.0 incubated for 18 hrs by UPLC analysis; format: physicochemical
[11] = Stability in pH 7.5 buffer assessed as compound recovery at 1 uM by Thioflavin T based fluorescence assay; format: physicochemical; conditions: read-out: Drug recovery
[12] = Solubility in 100 mM bistrispropane buffer at pH 7.5 incubated for 18 hrs by UPLC analysis; format: physicochemical
[13] = test system: Rattus norvegicus; assay: Reduction in food intake in Sprague-Dawley rat at 3 nmol/kg measured 0 to 24 hrs post dose relative to control; format: functional; parameters: scale not given: the % may be the effect or the level left
[14] = molecular target: T3, Amylin receptor AMY3; CALCR/RAMP3; assay: Agonist activity at human amylin receptor expressed in BHK570 cells co-expressing RAMP3 assessed as increase in intracellular cAMP concentration incubated for 3 hrs in presence of 10% FBS by CRE luciferase reporter gene assay; format: functional, cell-based
[15] = molecular target: T1, Calcitonin receptor; assay: Agonist activity at human calcitonin receptor expressed in BHK570 cells assessed as increase in intracellular cAMP concentration incubated for 3 hrs in presence of 10% FBS by CRE luciferase reporter gene assay; format: functional, cell-based
[16] = Solubility in 100 mM bistrispropane buffer at pH 8.0 incubated for 18 hrs by UPLC analysis; format: physicochemical
[17] = molecular target: T1, Calcitonin receptor; assay: Displacement of [125I]-labeled human calcitonin from human calcitonin receptor expressed in BHK tkts13 cell membranes incubated for 1 hr by scintillation proximity assay
[18] = Solubility in 100 mM glycylglycine buffer at pH 4.0 incubated for 18 hrs by UPLC analysis; format: physicochemical
[19] = test system: Rattus norvegicus; assay: Reduction in food intake in Sprague-Dawley rat at 3 nmol/kg measured 24 to 48 hrs post dose relative to control; format: functional; parameters: scale not given: the % may be the effect or the level left
[20] = molecular target: T1, Calcitonin receptor; assay: Displacement of [125I]-labeled human calcitonin from human calcitonin receptor expressed in BHK tkts13 whole cells incubated for 60 mins by scintillation proximity assay; format: cell-based

Row | Structure (SMILES) | EC50 [1] [nM] | IC50 [2] [nM] | IC50 [3] [nM] | solubility at 18 h [4] [µM] | solubility at 18 h [5] [µM] | solubility at 18 h [6] [µM] | solubility at 18 h [7] [µM] | Time [8] [h] | EC50 [9] [nM] | solubility at 18 h [10] [µM] | remaining at 1 µM [11] [%] | solubility at 18 h [12] [µM] | Activity [13] [%] | EC50 [14] [nM] | EC50 [15] [nM] | solubility at 18 h [16] [µM] | IC50 [17] [nM] | solubility at 18 h [18] [µM] | Activity [19] [%] | IC50 [20] [nM]
1 | CC(C)C[C@H](NC(=O)[C@H](C)NC(=O)[C@H](C)NC(=O)[C@@H](NC(=O)[C@H](CO)NC(=O)[C@H](CC(C)C)NC(=O)[C@H](CCC(=O)O)NC(=O)[C@H](CO)NC(=O)[C@H](C)NC(=O)CC[C@H](NC(=O)CCCCCCCCCCCCCCC(=O)O)C(=O)O)[C@@H](C)O)C(=O)NCC(=O)N[C@@H](CCCNC(=N)N)C(=O)N[C@@H](CC(C)C)C(=O)N[C@@H](CO)C(=O)N[C@@H](C)C(=O)N[C@@H](CCC(=O)O)C(=O)N[C@@H](CC(C)C)C(=O)N[C@@H](Cc1cnc[nH]1)C(=O)N[C@@H](CCC(=O)O)C(=O)N[C@@H](CC(C)C)C(=O)N[C@@H](C)C(=O)N[C@H](C(=O)N[C@@H](CC(C)C)C(=O)N1CCC[C@H]1C(=O)N[C@@H](CCCNC(=N)N)C(=O)N[C@H](C(=O)N[C@@H](CCC(=O)O)C(=O)N[C@H](C(=O)NCC(=O)N[C@@H](CO)C(=O)NCC(=O)N[C@@H](CO)C(=O)N1CCC[C@H]1C(N)=O)[C@@H](C)O)[C@@H](C)O)[C@@H](C)O ({C16 diacid-γGlu}-ASELSTAALGRLSAELHELATLPRTETGSGSP-NH2) | 0.015 | 0.022 | 0.037 | ≥ 200 | ≥ 200 | ≥ 200 | ≥ 200 | > 45 | 0.018 | ≥ 200 | 100 | ≥ 200 | 66 | 0.004 | 0.002 | ≥ 200 | 0.024 | ≥ 200 | 10 | 
2 | CC(C)C[C@H](NC(=O)[C@H](C)NC(=O)[C@H](C)NC(=O)[C@@H](NC(=O)[C@H](CO)NC(=O)[C@H](CC(C)C)NC(=O)[C@H](CCC(N)=O)NC(=O)[C@H](CO)NC(=O)[C@H](C)NC(=O)CC[C@H](NC(=O)CCCCCCCCCCCCCCCCC(=O)O)C(=O)O)[C@@H](C)O)C(=O)NCC(=O)N[C@@H](CCCNC(=N)N)C(=O)N[C@@H](CC(C)C)C(=O)N[C@@H](CO)C(=O)N[C@@H](C)C(=O)N[C@@H](CCC(=O)O)C(=O)N[C@@H](CC(C)C)C(=O)N[C@@H](Cc1cnc[nH]1)C(=O)N[C@@H](CCC(=O)O)C(=O)N[C@@H](CC(C)C)C(=O)N[C@@H](C)C(=O)N[C@H](C(=O)N[C@@H](CC(C)C)C(=O)N1CCC[C@H]1C(=O)N[C@@H](CCCNC(=N)N)C(=O)N[C@H](C(=O)N[C@@H](CCC(=O)O)C(=O)N[C@H](C(=O)NCC(=O)N[C@@H](CO)C(=O)NCC(=O)N[C@@H](CO)C(=O)N1CCC[C@H]1C(N)=O)[C@@H](C)O)[C@@H](C)O)[C@@H](C)O ({C18 diacid-γGlu}-ASQLSTAALGRLSAELHELATLPRTETGSGSP-NH2) | 0.011 |  |  | ≥ 200 | ≥ 200 | ≥ 200 | ≥ 200 |  | 0.009 | ≥ 200 |  | ≥ 200 |  |  |  | ≥ 200 |  | ≥ 200 |  | 0.605
3 | CC(C)C[C@H](NC(=O)CNC(=O)[C@H](CO)NC(=O)[C@H](C)NC(=O)CC[C@H](NC(=O)CCCCCCCCCCCCCCCCCCC(=O)O)C(=O)O)C(=O)N[C@@H](CO)C(=O)N[C@H](C(=O)N[C@@H](C)C(=O)N[C@@H](C)C(=O)N[C@@H](CC(C)C)C(=O)NCC(=O)N[C@@H](CCCNC(=N)N)C(=O)N[C@@H](CC(C)C)C(=O)N[C@@H](CO)C(=O)N[C@@H](CCC(N)=O)C(=O)N[C@@H](CCC(=O)O)C(=O)N[C@@H](CC(C)C)C(=O)N[C@@H](Cc1cnc[nH]1)C(=O)N[C@@H](CCC(=O)O)C(=O)N[C@@H](CC(C)C)C(=O)N[C@@H](CCC(N)=O)C(=O)N[C@H](C(=O)N[C@@H](Cc1ccc(O)cc1)C(=O)N1CCC[C@H]1C(=O)N[C@@H](CCCNC(=N)N)C(=O)N[C@H](C(=O)N[C@@H](CCC(=O)O)C(=O)N[C@H](C(=O)NCC(=O)N[C@@H](CO)C(=O)N[C@@H](CCC(N)=O)C(=O)N[C@H](C(=O)N[C@@H](Cc1ccc(O)cc1)C(N)=O)[C@@H](C)O)[C@@H](C)O)[C@@H](C)O)[C@@H](C)O)[C@@H](C)O ({C20 diacid-γGlu}-ASGLSTAALGRLSQELHELQTYPRTETGSQTY-NH2) | 0.025 | 0.078 | 0.131 | ≥ 200 | ≥ 200 | ≥ 200 | ≥ 200 | > 45 | 0.037 |  | 100 | ≥ 200 | 40 |  | 0.108 | ≥ 200 | 0.051 | ≥ 200 | 42 | 
4 | CC(C)C[C@H](NC(=O)CNC(=O)[C@H](CO)NC(=O)[C@H](C)NC(=O)CC[C@H](NC(=O)CCCCCCCCCCCCCCCCCCC(=O)O)C(=O)O)C(=O)N[C@@H](CO)C(=O)N[C@H](C(=O)N[C@@H](C)C(=O)N[C@H](C(=O)N[C@@H](CC(C)C)C(=O)NCC(=O)N[C@@H](CCCNC(=N)N)C(=O)N[C@@H](CC(C)C)C(=O)N[C@@H](CO)C(=O)N[C@@H](CCC(N)=O)C(=O)N[C@@H](CCC(=O)O)C(=O)N[C@@H](CC(C)C)C(=O)N[C@@H](Cc1cnc[nH]1)C(=O)N[C@@H](CCC(=O)O)C(=O)N[C@@H](CC(C)C)C(=O)N[C@@H](CCC(N)=O)C(=O)N[C@H](C(=O)N[C@@H](Cc1ccc(O)cc1)C(=O)N1CCC[C@H]1C(=O)N[C@@H](CCCNC(=N)N)C(=O)N[C@H](C(=O)N[C@@H](CCC(=O)O)C(=O)N[C@H](C(=O)NCC(=O)N[C@@H](CO)C(=O)N[C@@H](CCC(N)=O)C(=O)N[C@H](C(=O)N[C@@H](Cc1ccc(O)cc1)C(N)=O)[C@@H](C)O)[C@@H](C)O)[C@@H](C)O)[C@@H](C)O)C(C)C)[C@@H](C)O ({C20 diacid-γGlu}-ASGLSTAVLGRLSQELHELQTYPRTETGSQTY-NH2) | 0.049 | 0.053 | 0.152 | ≥ 200 | ≥ 200 | ≥ 200 | ≥ 200 | 1.5 | 0.072 |  | 39.5 | ≥ 200 | 25 |  | 0.061 | ≥ 200 | 0.067 |  | 29 | 
